The values below come from patent US7087757B2, “Phenyl-substituted imidazopyridines” (Ortho-McNeil Pharmaceutical, Inc., priority 2000, dated 2006).

For this assay, the target named is T1, human histamine H3 receptor (Homo sapiens, UniProt Q9Y5N1).
T1 construct: One microgram supercoiled H3 receptor cDNA was added to the cells and mixed; expressed in transfected cells; membranes prepared from cell pellets
T1 sequence (Q9Y5N1 whole entry): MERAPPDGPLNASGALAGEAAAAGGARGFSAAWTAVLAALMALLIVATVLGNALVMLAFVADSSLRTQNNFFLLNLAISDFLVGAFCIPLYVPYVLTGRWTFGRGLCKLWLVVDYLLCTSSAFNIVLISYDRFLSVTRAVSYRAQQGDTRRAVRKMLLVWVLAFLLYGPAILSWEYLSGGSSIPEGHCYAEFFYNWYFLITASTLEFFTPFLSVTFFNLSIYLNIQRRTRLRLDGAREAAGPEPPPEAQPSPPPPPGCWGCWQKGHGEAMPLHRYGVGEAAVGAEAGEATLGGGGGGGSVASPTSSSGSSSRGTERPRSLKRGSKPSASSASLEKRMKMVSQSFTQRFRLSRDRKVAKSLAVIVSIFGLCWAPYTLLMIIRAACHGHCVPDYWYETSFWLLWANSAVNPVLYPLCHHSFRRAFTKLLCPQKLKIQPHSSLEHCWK
In words: [3H]-N-methylhistamine binding. Conditions: membranes of histamine H3 receptor-expressing SK-N-MC cells; 0.8 nM [3H]-N-methylhistamine; 45 minutes at 25° C.; Ki calculated with KD of 800 pM. On the procedure: Screening using the human receptor is particularly important for the identification of new therapies for the treatment of human disease.
A 10 cm tissue culture dish with a confluent monolayer of SK-N-MC cells was split two days prior to transfection. Using sterile technique the media was removed and the cells were detached from the dish by the addition of trypsin. One fifth of the cells were then placed onto a new 10 cm dish. Cells were grown in a 37° C. incubator with 5% CO2 in Minimal Essential Media Eagle with 10% Fetal Bovine Serum. After two days cells were approximately 80% confluent. These were removed from the dish with trypsin and pelleted in a clinical centrifuge. […] One microgram supercoiled H3 receptor cDNA was added to the cells and mixed. The voltage for the electroporation was set at 0.25 kV, the capacitance is set at 960 μF.
After electroporation the cells were diluted into 10 mL complete media and plated onto four 10 cm dishes. Due to the variability in the efficiency of electroporation, four different concentrations of cells were plated. The ratios used were: 1:20, 1:10, and 1:5, with the remainder of the cells being added to the fourth dish. The cells were allowed to recover for 24 hours before adding the selection media (complete media with 600 μg/ml G418). After 10 days dishes were analyzed for surviving colonies of cells. Dishes with well-isolated colonies were used. Cells from individual colonies were isolated and tested. SK-N-MC cells were used because they give efficient coupling for inhibition of adenylate cyclase. The clones that gave the most robust inhibition of adenylate cyclase in response to histamine were used for further study.
Cell pellets from histamine H3 receptor-expressing SK-N-MC cells were homogenized in 20 mM Tris HCl/0.5 mM EDTA. Supernatants from a 800 g spin were collected, reccentrifuged at 30,000 g for 30 minutes. Pellets were rehomogenized in 50 mM Tris/5 mM EDTA (pH 7.4). Membranes were incubated with 0.8 nM [^3H]-N-methylhistamine plus/minus test compounds for 45 minutes at 25° C. and harvested by rapid filtration over GF/C glass fiber filters (pretreated with 0.3% polyethylenimine) followed by four washes with ice cold buffer. Filters were dried, added to 4 mL scintillation cocktail and then counted on a liquid scintillation counter.
A word on the Ki: it is a measure of affinity in units of concentration, obtained from inhibition or displacement. `CC1CCn2cc(-c3ccc(CCCCN4CCCCC4)cc3)nc2C1` (stereo not drawn) [Example 41, 7-Methyl-2-[4-(4-piperidin-1-yl-butyl)-phenyl]-5,6,7,8-tetrahydro-imidazo[1,2-a]pyridine]: the Ki was 27 nM.

`Cc1cccn2cc(-c3ccc(OCCCNC(C)c4ccccc4)cc3)nc12` (stereo not drawn) [Example 42, 2-(4-alpha-Methylbenzylaminopropoxyphenyl)-8-methylimidazo[1,2-a]pyridine]: the Ki was 1000 nM.

On to `Cc1cccn2cc(-c3ccc(OCCCNCc4ccccc4)cc3)nc12` [Example 43, 2-(4-Benzylaminopropoxyphenyl)-8-methylimidazo[1,2-a]pyridine], for which the Ki was 1000 nM.

`Cc1cccn2cc(-c3ccc(OCCCNC4CCN(Cc5ccccc5)CC4)cc3)nc12` [Example 44, 2-[4-[N-[(1-Benzylpiperidino)amino]propoxy]phenyl]-8-methylimidazo[1,2-a]pyridine]: the Ki was 150 nM.

For `Cc1cccn2cc(-c3ccc(OCCCN4CCN(CCc5ccccc5)CC4)cc3)nc12` [Example 45, 2-[4-[3-(4-Phenethylpiperazino)propoxy]phenyl]-8-methylimidazo[1,2-a]pyridine], the Ki was 500 nM.

As for `CCCNCC(O)COc1ccc(-c2cn3cccc(C)c3n2)cc1` (stereo not drawn) [Example 46, 2-[4-(2-hydroxy-3-propylaminopropoxy)phenyl]-8-methylimidazo[1,2-a]pyridine], the Ki was 1000 nM.

Consider `CCCN(CCC)CC(O)COc1ccc(-c2cn3cccc(C)c3n2)cc1` (stereo not drawn) [Example 47, 2-(4-Dipropylamino(2-hydroxy)propoxyphenyl)-8-methylimidazo[1,2-a]pyridine], for which the Ki was 500 nM.

Take `CCCCN(CCCC)CC(O)COc1ccc(-c2cn3cccc(C)c3n2)cc1` (stereo not drawn) [Example 48, 2-(4-Dibutylamino(2-hydroxy)propoxyphenyl)-8-methylimidazo[1,2-a]pyridine]: the Ki was 1000 nM.

`Cc1cccn2cc(-c3ccc(OCC(O)CNC(C)(C)C)cc3)nc12` (stereo not drawn) [Example 49, 2-(4-(2-hydroxy-3-(1,1-Dimethylethyl)aminopropoxy)phenyl)-8-methylimidazo[1,2-a]pyridine]: the inhibitory constant (Ki) was 1000 nM.

For the molecule `Cc1cccn2cc(-c3ccc(OCC(O)CN4CCN(CCc5ccccc5)CC4)cc3)nc12` (stereo not drawn) [Example 50, 2-[4-[2-Hydroxy-3-(4-phenethylpiperazino)propoxy]phenyl]-8-methylimidazo[1,2-a]pyridi], the Ki is 1000 nM.

Regarding `Cc1cccn2cc(-c3ccc(OCC(O)CN4CCN(Cc5ccccc5)CC4)cc3)nc12` (stereo not drawn) [Example 51, 2-[4-[2-Hydroxy-3-(4-benzylpiperazino)propoxy]phenyl]-8-methylimidazo[1,2-a]pyridine], the Ki is 5000 nM.

On to `c1ccn2cc(-c3ccc(OCCCN4CCCCC4)cc3)nc2c1` [Example 52, 2-[4-(3-Piperidin-1-yl-propoxy)-phenyl]-imidazo[1,2-a]pyridine], for which the Ki is 5 nM.

Take `Cc1cccn2cc(-c3ccc(NS(=O)(=O)CCCN4CCCCC4)cc3)nc12` [Example 53, 3-Piperidin-1-yl-propane-1-sulfonic acid [4-(8-methyl-imidazo[1,2-a]pyridin-2-yl)-phenyl]]: the Ki is 630 nM.

Regarding `Cc1cccn2cc(-c3ccc(OCCCN4CCCCC4)cc3)nc12` [Example 54, 2-(4-Piperidinopropoxyphenyl)-8-methylimidazo[1,2-a]pyridine], the Ki is 1 nM.

For `Cc1cccn2cc(-c3ccc(OCCCN4CCOCC4)cc3)nc12` [Example 55, 2-(4-Morpholinopropoxyphenyl)-8-methylimidazo[1,2-a]pyridine], the Ki was 25 nM.
